# Experimental data taken from the supplement of paper PMC12613149.
# Counter-ions that a name gives are not always drawn.
# Assays:
# [1] = collision cross section (TIMS, N2 drift gas) of the primary ion; higher = larger gas-phase ion size
# [2] = reversed-phase LC retention time (C18, 15 min MeOH gradient); higher = more hydrophobic / later elution
# [3] = ionization mode: ESI+, ion species: [M+H]+
# [4] = ionization mode: ESI-, ion species: [M-H]-
# [5] = ionization mode: ESI+, ion species: [M]+
"collision cross section [1, 3]","collision cross section [1, 4]","reversed-phase LC retention time [2, 3]","reversed-phase LC retention time [2, 4]","collision cross section [1, 5]","reversed-phase LC retention time [2, 5]",Compound
178.14 Å²,180.37 Å²,14.4 min,14.7 min,,,Cn1cc(C(=O)Nc2ccccc2-c2cc(F)c(F)c(F)c2)c(C(F)F)n1 [Fluxapyroxad]
,129.75 Å²,,10.9 min,,,O=C(O)C(F)(F)C(F)(F)C(F)(F)C(F)(F)F [Perfluoropentanoic acid]
282.55 Å²,293.81 Å²,13 min,15.6 min,,,CC[C@H]1OC(=O)C[C@@H](O)[C@H](C)[C@@H](O[C@@H]2O[C@H](C)[C@@H](O[C@H]3C[C@@](C)(O)[C@@H](O)[C@H](C)O3)[C@H](N(C)C)[C@H]2O)[C@@H](CC=O)C[C@@H](C)C(=O)/C=C/C(C)=C/[C@@H]1CO[C@@H]1O[C@H](C)[C@@H](O)[C@@H](OC)[C@H]1OC [Tylosin]
,,,,196.39 Å²,17.4 min,CCCCCCCCCCCCCCCC[N+](C)(C)C [Hexadecyltrimethylammonium]
118.24 Å²,,9.66 min,,,,c1ccc2ncccc2c1 [Quinoline]
155.79 Å²,,11 min,,,,CCNC(=O)[C@@H](C)OC(=O)Nc1ccccc1 [Carbetamide]
217.22 Å²,208.7 Å²,14 min,13.4 min,,,N[C@@H](Cc1cc(I)c(Oc2cc(I)c(O)c(I)c2)c(I)c1)C(=O)O [L-Thyroxine]
173.98 Å²,167.79 Å²,16.2 min,16.6 min,,,O=C(Nc1ccc(Cl)cc1)Nc1ccc(Cl)c(Cl)c1 [Triclocarban]
166.39 Å²,,16.9 min,,,,CCCCCCCCn1sc(Cl)c(Cl)c1=O [DCOIT]
148.63 Å²,154.28 Å²,16.7 min,17.1 min,,,Cc1ccc(O)c(-n2nc3ccccc3n2)c1 [Drometrizole]
163.51 Å²,,7.95 min,,,,CCCN(CCC)CCc1cccc2c1CC(=O)N2 [Ropinirole]
,191.62 Å²,,17 min,,,O=C(O)C(F)(F)C(F)(F)C(F)(F)C(F)(F)C(F)(F)C(F)(F)C(F)(F)C(F)(F)C(F)(F)C(F)(F)C(F)(F)F [Perfluorododecanoic acid]
173.57 Å²,,9.49 min,,,,Cc1nccn1CC1CCc2c(c3ccccc3n2C)C1=O (configuration not stated) [Ondansetron]
143.26 Å²,,3.34 min,,,,CN1C(=O)CC[C@H]1c1cccnc1 [Cotinine]
,125.1 Å²,,6.76 min,,,N#Cc1cc(Cl)c(O)c(Cl)c1 [Chloroxynil]
144.88 Å²,,14 min,,,,C/C=C/C(=O)N(CC)c1ccccc1C [Crotamiton]
175.75 Å²,,13.3 min,,,,CC1CN(C2CCCCCCCCCCC2)CC(C)O1 (configuration not stated) [Dodemorph]
,135.45 Å²,,7.34 min,,,Cc1ccc(OS(=O)(=O)[O-])cc1 [p-Tolyl Sulfate]

Compound,"collision cross section [1, 3]","collision cross section [1, 4]","reversed-phase LC retention time [2, 3]","reversed-phase LC retention time [2, 4]","collision cross section [1, 5]","reversed-phase LC retention time [2, 5]"
"Nc1ccc(Cc2ccc(N)c(Cl)c2)cc1Cl [2,2'-dichloro-4,4'-methylenedianiline]",173.31 Å²,,13.8 min,,,
"Oc1nc(Cl)c(Cl)cc1Cl [3,5,6-Trichloro-2-pyridinol]",,125.88 Å²,,11.2 min,,
CCOC1Oc2ccc(OS(C)(=O)=O)cc2C1(C)C (configuration not stated) [Ethofumesate],166.62 Å²,,13.8 min,,,
CCN(CC)C(=O)C(C)Oc1cccc2ccccc12 (configuration not stated) [Napropamide],164.64 Å²,,14.9 min,,,
O=C(NC(=O)c1c(F)cccc1F)Nc1ccc(Oc2ccc(C(F)(F)F)cc2Cl)cc1F [Flufenoxuron],204.54 Å²,215.68 Å²,17.4 min,17.8 min,,
C#CCOc1ccc(CCNC(=O)C(OCC#C)c2ccc(Cl)cc2)cc1OC (configuration not stated) [Mandipropamid],194.91 Å²,195.62 Å²,14.2 min,14.6 min,,
